From patent US20240352021A1 (DANA-FARBER CANCER INSTITUTE, INC., priority 2021, published 2024)
“And” between values parts separate entries of the source, which are not always exact repeats. Equal entries are not always repeated. Where two headings read alike, the source gives them in different places.

Legend:
[1] = target: EGFR mutant L858R Ba/F3 cells (Homo sapiens, UniProt P00533, L858R, cells depend on it); experiment: Ba/F3 cell proliferation (Cell Titer Glo), EGFR L858R; format: cell-based, murine; details: 72 hours
Source text: (§1) The EGFR mutant L858R Ba/F3 cells have been previously described (Zhou, W., et al. Nature 462, 2009, 1070-1074). The EGFR C797S and C775S mutations were introduced via site directed mutagenesis using the Quick Change Site-Directed Mutagenesis kit into a vector containing EGFR L858R mutation (Stratagene; La Jolla, CA) according to the manufacturer's instructions. All constructs were confirmed by DNA sequencing. The constructs were then shuttled into the retroviral vector JP1540 by either using the Cre-recombination system (Agilent Technologies, Santa Clara, CA) or the In-fusion HD Cloning kit (Takara Bio USA, Inc.; Mountain view, CA). Ba/F3 cells were then infected with retrovirus per standard protocols, as described previously (Zhou, et al, Nature 2009). Stable clones were obtained by selection in puromycin (2 μg/ml). All BaF/3 mutant cells were maintained in RPMI 1640 (Cellgro; Mediatech Inc., Herndon, CA) supplemented with 10% FBS, 100 units/mL penicillin, 100 units/mL streptomycin.
(§2) Growth and inhibition of growth was assessed by the Cell Titer Glo assay (Promega, Madison, WI) and was performed according to the manufacturer's instructions. The Cell Titer Glo assay is a luminescence-based method used to determine the number of viable cells based on quantitation of the ATP present, which is directly proportional to the amount of metabolically active cells present. Ba/F3 cells of different EGFR genotypes were exposed to compounds for 72 hours and the number of cells used per experiment was determined empirically as has been previously established (Zhou, et al., Nature 2009). All experimental points were set up in triplicates in 384-well plates. […] The curves were fitted using a non-linear regression model with a sigmoidal dose response.
(§3) Ba/F3 cells assay data are provided below in Table 5 and Table 6. For inhibitory activity against EGFR mutants, the following designations are used: <0.1 μM=A, 0.1 μM˜0.5 μM=B, 0.5 μM˜2.5 μM=C, ≥2.5 μM=D

[2] = target: EGFR L858R/C797S Ba/F3 cells (Homo sapiens, UniProt P00533, C797S/L858R, cells depend on it); experiment: Ba/F3 cell proliferation (Cell Titer Glo), EGFR L858R/C797S; format: cell-based, murine; details: 72 hours
Source text: as §1, §2, §3

EGFR mutant L858R Ba/F3 cells, sequence (P00533 whole entry L858R, the tested form may be a part): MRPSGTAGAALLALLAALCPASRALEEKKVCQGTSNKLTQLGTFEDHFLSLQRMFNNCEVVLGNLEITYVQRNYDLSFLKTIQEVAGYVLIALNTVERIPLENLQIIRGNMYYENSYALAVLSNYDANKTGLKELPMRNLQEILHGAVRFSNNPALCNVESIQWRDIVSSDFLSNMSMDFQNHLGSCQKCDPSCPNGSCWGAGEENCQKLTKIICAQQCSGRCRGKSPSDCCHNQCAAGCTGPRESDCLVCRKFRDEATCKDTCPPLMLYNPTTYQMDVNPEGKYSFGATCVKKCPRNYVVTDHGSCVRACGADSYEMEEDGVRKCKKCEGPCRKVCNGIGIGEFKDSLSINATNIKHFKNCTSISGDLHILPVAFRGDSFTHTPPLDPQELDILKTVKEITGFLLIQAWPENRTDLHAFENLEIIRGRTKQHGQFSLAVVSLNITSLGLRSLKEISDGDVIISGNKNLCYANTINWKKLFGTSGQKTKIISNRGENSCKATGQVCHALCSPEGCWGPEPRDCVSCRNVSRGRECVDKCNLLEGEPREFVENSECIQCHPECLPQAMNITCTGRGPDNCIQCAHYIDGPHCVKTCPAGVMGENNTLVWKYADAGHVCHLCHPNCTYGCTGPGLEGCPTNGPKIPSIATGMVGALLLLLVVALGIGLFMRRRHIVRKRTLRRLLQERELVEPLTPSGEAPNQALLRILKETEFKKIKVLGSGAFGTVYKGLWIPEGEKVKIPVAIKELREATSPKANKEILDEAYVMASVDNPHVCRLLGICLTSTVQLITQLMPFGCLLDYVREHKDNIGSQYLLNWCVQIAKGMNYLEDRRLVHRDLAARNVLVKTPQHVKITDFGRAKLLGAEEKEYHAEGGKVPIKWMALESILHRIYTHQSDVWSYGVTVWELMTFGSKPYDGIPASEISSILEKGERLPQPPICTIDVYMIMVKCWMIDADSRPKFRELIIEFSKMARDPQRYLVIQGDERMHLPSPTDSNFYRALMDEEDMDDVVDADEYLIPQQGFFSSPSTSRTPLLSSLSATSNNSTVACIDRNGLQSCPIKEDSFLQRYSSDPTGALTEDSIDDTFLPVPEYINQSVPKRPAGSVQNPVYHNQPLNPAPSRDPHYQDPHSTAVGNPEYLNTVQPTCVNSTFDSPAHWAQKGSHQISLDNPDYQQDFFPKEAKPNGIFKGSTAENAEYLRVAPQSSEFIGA
EGFR L858R/C797S Ba/F3 cells, sequence (P00533 whole entry C797S/L858R): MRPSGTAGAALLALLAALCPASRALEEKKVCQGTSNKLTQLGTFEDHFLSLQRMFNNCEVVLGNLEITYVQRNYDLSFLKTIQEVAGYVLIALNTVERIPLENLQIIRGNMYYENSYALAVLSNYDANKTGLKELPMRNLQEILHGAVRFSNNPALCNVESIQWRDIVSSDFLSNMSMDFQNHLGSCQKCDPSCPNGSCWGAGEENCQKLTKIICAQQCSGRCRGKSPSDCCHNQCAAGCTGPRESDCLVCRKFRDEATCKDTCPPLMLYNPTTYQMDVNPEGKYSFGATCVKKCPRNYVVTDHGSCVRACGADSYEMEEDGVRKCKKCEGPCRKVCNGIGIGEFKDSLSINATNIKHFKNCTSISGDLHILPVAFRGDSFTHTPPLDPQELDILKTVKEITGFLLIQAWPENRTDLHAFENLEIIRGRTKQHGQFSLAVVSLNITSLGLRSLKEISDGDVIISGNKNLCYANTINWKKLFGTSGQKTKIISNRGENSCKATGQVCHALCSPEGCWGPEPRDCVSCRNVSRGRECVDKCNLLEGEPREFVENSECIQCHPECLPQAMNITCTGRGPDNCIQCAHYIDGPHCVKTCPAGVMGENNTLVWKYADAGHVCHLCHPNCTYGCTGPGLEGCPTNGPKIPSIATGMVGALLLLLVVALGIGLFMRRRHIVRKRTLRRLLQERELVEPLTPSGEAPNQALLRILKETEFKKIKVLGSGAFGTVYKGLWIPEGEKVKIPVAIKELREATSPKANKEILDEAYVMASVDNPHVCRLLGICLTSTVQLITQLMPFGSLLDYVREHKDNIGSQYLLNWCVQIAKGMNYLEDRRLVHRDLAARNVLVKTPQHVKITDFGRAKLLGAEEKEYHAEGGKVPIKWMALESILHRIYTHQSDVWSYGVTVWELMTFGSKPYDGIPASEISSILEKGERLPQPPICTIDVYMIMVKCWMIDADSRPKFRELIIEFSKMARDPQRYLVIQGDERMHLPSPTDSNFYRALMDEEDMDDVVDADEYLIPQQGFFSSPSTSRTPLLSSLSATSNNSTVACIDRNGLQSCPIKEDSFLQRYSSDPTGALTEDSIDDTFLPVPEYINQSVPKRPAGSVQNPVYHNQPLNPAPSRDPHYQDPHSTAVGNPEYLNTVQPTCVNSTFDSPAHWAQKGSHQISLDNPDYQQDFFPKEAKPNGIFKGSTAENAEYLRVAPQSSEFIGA

SMILES | GI50 ([1]; Table 5, read-out: L858R BaF3) | GI50 ([2]; Table 5) | GI50 ([1]; Table 6, read-out: L858R BaF3) | GI50 ([2]; Table 6)
C=CC(=O)Nc1ccccc1CN1Cc2cnc(Nc3ccc(N4CCN(C)CC4)cc3)nc2N(C)C1=O [Compound 001, N-(2-((1-methyl-7-((4-(4-methylpiperazin-1-yl)phenyl)amino)-2-oxo-1,4-dihydropyrimido[4,5-d]pyrimidin-S(2H)-yl)methyl)phenyl)acrylamide] | 100 to 500 nM | 100 to 500 nM | – | –
C=CC(=O)Nc1c(F)cccc1CN1Cc2cnc(Nc3ccc(N4CCN(C)CC4)cc3)nc2N(C)C1=O [Compound 019] | 100 to 500 nM | 500 to 2500 nM | – | –
C=CC(=O)Nc1cccc(CN2Cc3cnc(Nc4ccc(N5CCN(C)CC5)cc4)nc3N(C)C2=O)c1 [Compound 036] | 500 to 2500 nM | ≥ 2500 nM | – | –
C=CC(=O)Nc1cn(C)nc1CN1Cc2cnc(Nc3ccc(N4CCN(C)CC4)cc3)nc2N(C)C1=O [Compound 046] | – | – | ≥ 2500 nM | ≥ 2500 nM
C=CC(=O)Nc1cccc2[nH]cc(CN3Cc4cnc(Nc5ccc(N6CCN(C)CC6)cc5)nc4N(C)C3=O)c12 [Compound 050] | – | – | ≥ 2500 nM | ≥ 2500 nM
C=CC(=O)N1CCC(N2Cc3cnc(Nc4ccc(N5CCN(C)CC5)cc4)nc3N(c3cccc(NC(C)=O)c3)C2=O)c2ccccc21 (centres unmarked) [Compound 051] | – | – | 100 to 500 nM | 500 to 2500 nM
C=CC(=O)N1CC2(CC(N3Cc4cnc(Nc5ccc(N6CCN(C)CC6)cc5)nc4N(C)C3=O)C2)C1 [Compound 053] | – | – | ≥ 2500 nM | ≥ 2500 nM
C=CC(=O)N1CCC(N2Cc3cnc(Nc4ccc(N5CCN(C)CC5)cc4)nc3N(C)C2=O)CC1 [Compound 054] | – | – | ≥ 2500 nM | ≥ 2500 nM
C=CC(=O)N1CCC(N2Cc3cnc(Nc4ccc(N5CCN(C)CC5)cc4)nc3N(C3CCCC3)C2=O)c2ccccc21 (stereo not drawn) [Compound 057, 1-cyclopentyl-7-[4-(4-methylpiperazin-1-yl)anilino]-S-(1-prop-2-enoyl-3,4-dihydro-2H-quinolin-4-yl)-4H-pyrimido[4,5-d]pyrimidin-2-one] | – | – | < 100 nM | < 100 nM
C=CC(=O)N1CCC(N2Cc3cnc(Nc4ccc(N5CCN(C)CC5)cc4)nc3N(C3CCOC3)C2=O)c2ccccc21 (centres unmarked) [Compound 058] | – | – | < 100 nM | < 100 nM
C=CC(=O)N1CC2CC1CC2N1Cc2cnc(Nc3ccc(N4CCN(C)CC4)cc3)nc2N(C)C1=O (stereo not drawn) [Compound 059, 1-methyl-7-[4-(4-methylpiperazin-1-yl)anilino]-S-(2-prop-2-enoyl-2-azabicyclo[2.2.1]heptan-5-yl)-4H-pyrimido[4,5-d]pyrimidin-2-one] | – | – | ≥ 2500 nM | ≥ 2500 nM
C=CC(=O)N1Cc2ccccc2C(N2Cc3cnc(Nc4ccc(N5CCN(C)CC5)cc4)nc3N(C)C2=O)C1 (centres unmarked) [Compound 060, 3-(2-acryloyl-1,2,3,4-tetrahydroisoquinolin-4-yl)-1-methyl-7-((4-(4-methylpiperazin-1-yl)phenyl)amino)-3,4-dihydropyrimido[4,5-d]pyrimidin-2(1H)-one] | – | – | ≥ 2500 nM | ≥ 2500 nM
C=CC(=O)N1CCC(N2Cc3cnc(Nc4cnn(C)c4)nc3N(C)C2=O)c2ccccc21 (centres unmarked) [Compound 061] | – | – | < 100 nM | < 100 nM
C=CC(=O)N1CCC(N2Cc3cnc(Nc4cnn(CCN(C)C)c4)nc3N(C)C2=O)c2ccccc21 (centres unmarked) [Compound 062] | – | – | < 100 nM | < 100 nM
C=CC(=O)N1CCC(N2Cc3cnc(Nc4cnn(CCO)c4)nc3N(C)C2=O)c2ccccc21 (centres unmarked) [Compound 063] | – | – | < 100 nM | < 100 nM
C=CC(=O)N1CCC(N2Cc3cnc(Nc4ccc(C5=CCN(C)CC5)cc4)nc3N(C)C2=O)c2ccccc21 (centres unmarked) [Compound 067] | – | – | < 100 nM | < 100 nM
C=CC(=O)N1CCC(N2Cc3cnc(Nc4ccc(OCCN5CCCC5)cc4)nc3N(C)C2=O)c2ccccc21 (centres unmarked) [Compound 068] | – | – | < 100 nM | < 100 nM
C=CC(=O)N1CCC(N2Cc3cnc(Nc4ccc(N(C)C)cc4)nc3N(C)C2=O)c2ccccc21 (centres unmarked) [Compound 074] | – | – | < 100 nM | < 100 nM
C=CC(=O)N1CCC(N2Cc3cnc(Nc4ccc(N(C)CCN(C)C)cc4)nc3N(C)C2=O)c2ccccc21 (centres unmarked) [Compound 075] | – | – | < 100 nM | < 100 nM
C=CC(=O)N1CCC(N2Cc3cnc(Nc4ccc(N(C)CCN(C)C)c(C(F)(F)F)c4)nc3N(C)C2=O)c2ccccc21 (centres unmarked) [Compound 076] | – | – | < 100 nM | < 100 nM
C=CC(=O)N1CCC(N2Cc3cnc(Nc4cccc(OC(F)F)c4)nc3N(C)C2=O)c2ccccc21 (centres unmarked) [Compound 081] | – | – | < 100 nM | < 100 nM
C=CC(=O)N1CCC(N2Cc3cnc(Nc4ccc(F)c(C#N)c4)nc3N(C)C2=O)c2ccccc21 (centres unmarked) [Compound 082] | – | – | < 100 nM | 100 to 500 nM and < 100 nM

Continued, values first:

GI50 ([1]; Table 5, read-out: L858R BaF3) | GI50 ([2]; Table 5) | GI50 ([1]; Table 6, read-out: L858R BaF3) | GI50 ([2]; Table 6) | SMILES
– | – | 100 to 500 nM | 100 to 500 nM | C=CC(=O)N1CC(N2Cc3cnc(Nc4ccc(N5CCN(C)CC5)cc4)nc3N(C)C2=O)c2ccccc21 (stereo not drawn) [Compound 047, 1-methyl-7-[4-(4-methylpiperazin-1-yl)anilino]-S-(1-prop-2-enoylindolin-3-yl)-4H-pyrimido[4,5-d]pyrimidin-2-one]
– | – | < 100 nM | < 100 nM | C=CC(=O)N1CC[C@H](N2Cc3cnc(Nc4ccc(N5CCN(C)CC5)cc4)nc3N(C)C2=O)c2ccccc21 [Compound 048, 1-methyl-7-[4-(4-methylpiperazin-1-yl)anilino]-S-[(4S)-1-prop-2-enoyl-3,4-dihydro-2H-quinolin-4-yl]-4H-pyrimido[4,5-d]pyrimidin-2-one]
– | – | < 100 nM | < 100 nM | C=CC(=O)N1CC[C@@H](N2Cc3cnc(Nc4ccc(N5CCN(C)CC5)cc4)nc3N(C)C2=O)c2ccccc21 [Compound 049, 1-methyl-7-[4-(4-methylpiperazin-1-yl)anilino]-S-[(4R)-1-prop-2-enoyl-3,4-dihydro-2H-quinolin-4-yl]-4H-pyrimido[4,5-d]pyrimidin-2-one]
– | – | < 100 nM | 100 to 500 nM | C=CC(=O)N1CCC(N2Cc3cnc(Nc4ccc(N5CCN(C)CC5)c(-c5cnn(C)c5)c4)nc3N(C)C2=O)c2ccccc21 (stereo not drawn) [Compound 052, 1-methyl-7-[4-(4-methylpiperazin-1-yl)-S-(1-methylpyrazol-4-yl)anilino]-S-(1-prop-2-enoyl-3,4-dihydro-2H-quinolin-4-yl)-4H-pyrimido[4,5-d]pyrimidin-2-one]
– | – | < 100 nM | < 100 nM | C=CC(=O)N1CCC(N2Cc3cnc(Nc4ccc(N5CCN(C)CC5)c(F)c4)nc3N(C)C2=O)c2ccccc21 (centres unmarked) [Compound 055]
– | – | < 100 nM | < 100 nM | C=CC(=O)N1CCC(N2Cc3cnc(Nc4ccc(N5CCN(C)CC5)nc4)nc3N(C)C2=O)c2ccccc21 (centres unmarked) [Compound 056]
– | – | < 100 nM | < 100 nM | C=C(F)C(=O)N1CCC(N2Cc3cnc(Nc4ccc(N5CCN(C)CC5)cc4)nc3N(C)C2=O)c2ccccc21 (centres unmarked) [Compound 064]
– | – | 500 to 2500 nM | 500 to 2500 nM | CN(C)C/C=C/C(=O)N1CCC(N2Cc3cnc(Nc4ccc(N5CCN(C)CC5)cc4)nc3N(C)C2=O)c2ccccc21 (centres unmarked) [Compound 065]
– | – | < 100 nM | < 100 nM | C=CC(=O)N1CCC(N2Cc3cnc(Nc4ccc(C5CCN(C)CC5)cc4)nc3N(C)C2=O)c2ccccc21 (centres unmarked) [Compound 066]
– | – | < 100 nM | < 100 nM | C=CC(=O)N1CCC(N2Cc3cnc(Nc4ccc(N5CCN(C)CC5)cn4)nc3N(C)C2=O)c2ccccc21 (centres unmarked) [Compound 069]
– | – | < 100 nM | < 100 nM | C=CC(=O)N1CCC(N2Cc3cnc(Nc4ccc(CN5CCN(C)CC5)cn4)nc3N(C)C2=O)c2ccccc21 (centres unmarked) [Compound 070]
– | – | < 100 nM | < 100 nM | C=CC(=O)N1CCC(N2Cc3cnc(Nc4ccc(N5CCN(C)CC5)c(C(F)(F)F)c4)nc3N(C)C2=O)c2ccccc21 (centres unmarked) [Compound 071]
– | – | < 100 nM | < 100 nM | C=CC(=O)N1CCC(N2Cc3cnc(Nc4cc(F)c(N5CCN(C)CC5)c(F)c4)nc3N(C)C2=O)c2ccccc21 (centres unmarked) [Compound 072]
– | – | < 100 nM | < 100 nM | C=CC(=O)N1CCC(N2Cc3cnc(Nc4cccc(N5CCN(C)CC5)c4)nc3N(C)C2=O)c2ccccc21 (centres unmarked) [Compound 073]
– | – | < 100 nM | < 100 nM | C=CC(=O)N1CCC(N2Cc3cnc(Nc4ccc(N5CCN(C)CC5)cc4Cl)nc3N(C)C2=O)c2ccccc21 (centres unmarked) [Compound 077]
– | – | < 100 nM | < 100 nM | C=CC(=O)N1CCC(N2Cc3cnc(Nc4ccc(CN5CCN(C)CC5)cc4)nc3N(C)C2=O)c2ccccc21 (centres unmarked) [Compound 078]
– | – | < 100 nM | < 100 nM | C=CC(=O)N1CCC(N2Cc3cnc(Nc4ccc(N5CCN(C)CC5)c(Cl)c4)nc3N(C)C2=O)c2ccccc21 (centres unmarked) [Compound 079]
– | – | < 100 nM | < 100 nM | C=CC(=O)N1CCC(N2Cc3cnc(Nc4ccc5c(c4)CCN(C)C5)nc3N(C)C2=O)c2ccccc21 (centres unmarked) [Compound 080]
